Results published in ChEMBL document CHEMBL5230136, “A review: Biologically active 3,4-heterocycle-fused coumarins” (Eur J Med Chem, 2021).
Converted amounts (≈) assume the structure as drawn. “And” between values parts separate entries of the source, which are not always exact repeats. Equal values may be shown once. Values belong to the compound of their own block, whether it stands above or below them.

What was measured:
[1] = Antioxidant activity assessed as DPPH radical scavenging activity; type: functional
[2] = Induction of angiogenesis in human HUVEC cells; type: functional
[3] = tested on: MES-SA; assay: Cytotoxicity against human MES-SA cells assessed as reduction in cell viability incubated for 72 hrs by MTT assay; type: functional, cell-based
[4] = tested on: MCF7; assay: Anticancer activity against human MCF7 cells assessed as inhibition of cell proliferation measured after 48 hrs by MTT assay; type: functional, cell-based; conditions: MCF7, 48 h
[5] = target: Dopamine receptors; D2 & D4 (Homo sapiens, UniProt P14416+P21917); assay: Binding affinity to human D2/D4 receptor assessed as inhibition constant; type: protein assay
[6] = target: D(4) dopamine receptor (Homo sapiens, UniProt P21917); assay: Binding affinity to D4 receptor (unknown origin) assessed as inhibition constant
[7] = tested on: HeLa; assay: Antiproliferative activity against human HeLa cells assessed as reduction in cell proliferation; type: functional, cell-based
[8] = tested on: Mus musculus; assay: Antiinflammatory activity in Swiss albino mouse model of carrageenan-induced paw edema assessed as reduction in paw edema; type: functional; parameters: scale not given: the % may be the effect or the level left
[9] = tested on: RAW264.7; assay: Anti-inflammatory activity against mouse RAW264.7 cells assessed as inhibition of LPS-induced NO production at 50 ug/ml relative to control; type: functional; parameters: scale not given: the % may be the effect or the level left; conditions: dose 50 µg/ml
[10] = tested on: Escherichia coli; assay: Antibacterial activity against Escherichia coli assessed as zone of inhibition at 20 mg/ml; type: functional; conditions: read-out: IZ
[11] = tested on: Micrococcus luteus; assay: Antibacterial activity against Micrococcus luteus assessed as zone of inhibition at 20 mg/ml; type: functional; conditions: read-out: IZ
[12] = tested on: Geotrichum candidum; assay: Antimicrobial activity against Geotrichum candidum assessed as zone of inhibition at 50 uM; type: functional; conditions: read-out: IZ
[13] = tested on: Aspergillus flavus; assay: Antifungal activity against Aspergillus flavus assessed as zone of inhibition at 20 mg/ml; type: functional; conditions: read-out: IZ
[14] = tested on: Serratia marcescens; assay: Antibacterial activity against Serratia marcescens assessed as zone of inhibition at 20 mg/ml; type: functional; conditions: read-out: IZ
[15] = tested on: Staphylococcus aureus; assay: Antibacterial activity against Staphylococcus aureus assessed as zone of inhibition at 20 mg/ml; type: functional; conditions: read-out: IZ
[16] = tested on: Trichophyton rubrum; assay: Antifungal activity against Trichophyton rubrum assessed as zone of inhibition at 20 mg/ml; type: functional; conditions: read-out: IZ
[17] = tested on: Pseudomonas aeruginosa; assay: Antibacterial activity against Pseudomonas aeruginosa assessed as zone of inhibition at 20 mg/ml; type: functional; conditions: read-out: IZ
[18] = tested on: Candida albicans; assay: Antifungal activity against Candida albicans assessed as zone of inhibition at 20 mg/ml; type: functional; conditions: read-out: IZ
[19] = tested on: Fusarium oxysporum; assay: Antifungal activity against Fusarium oxysporum assessed as zone of inhibition at 20 mg/ml; type: functional; conditions: read-out: IZ
[20] = tested on: Geotrichum candidum; assay: Antifungal activity against Geotrichum candidum assessed as zone of inhibition at 20 mg/ml; type: functional; conditions: read-out: IZ
[21] = tested on: Scopulariopsis; assay: Antifungal activity against Scopulariopsis assessed as zone of inhibition at 20 mg/ml; type: functional; conditions: read-out: IZ
[22] = tested on: Bacillus cereus; assay: Antibacterial activity against Bacillus cereus assessed as zone of inhibition at 20 mg/ml; type: functional; conditions: read-out: IZ
[23] = tested on: Raji; assay: Antiproliferative activity against human Raji cells assessed as reduction in cell growth incubated for 72 hrs by MTT assay; type: functional, cell-based
[24] = organism: Rattus norvegicus; assay: Antifibrotic activity in Sprague-Dawley rat model of BDL induced hepatic fibrosis assessed as […] fibrotic potential; type: functional
[25] = tested on: Ehrlich; assay: cells; conditions: Mus musculus
Description: Anticancer activity against mouse EAC cells assessed as reduction in cell viability

[26] = tested on: K562; assay: cells; conditions: Homo sapiens
Description: Cytotoxicity against human K562 cells at 50 uM by MTT reduction assay

[27] = tested on: HeLa; assay: cells; conditions: Homo sapiens
Description: Cytotoxicity against human HeLa cells at 50 uM by MTT reduction assay

[28] = tested on: MCF7; assay: Cytotoxicity against human MCF7 cells […] by MTT reduction assay; type: functional, cell-based
[29] = tested on: LS180; assay: cells; conditions: Homo sapiens
Description: Cytotoxicity against human LS180 cells at 50 uM by MTT reduction assay

[30] = tested on: A549; assay: Anticancer activity against human A549 cells assessed as reduction in cell viability; type: functional, cell-based
[31] = tested on: A549; assay: Anticancer activity against human A549 cells assessed as inhibition of cell proliferation measured after 48 hrs by MTT assay; type: functional, cell-based; conditions: A549, 48 h
[32] = tested on: Escherichia coli; assay: Antibacterial activity against Escherichia coli assessed as bacterial growth inhibition; type: functional
[33] = tested on: Bacillus subtilis; assay: Antibacterial activity against Bacillus subtilis assessed as reduction in bacterial growth; type: functional
[34] = tested on: Staphylococcus aureus; assay: Antibacterial activity against Staphylococcus aureus ATCC 29213 assessed as reduction in bacterial growth; type: functional
[35] = tested on: Staphylococcus epidermidis; assay: Antibacterial activity against Staphylococcus epidermidis assessed as reduction in bacterial growth; type: functional
[36] = tested on: Plasmodium falciparum; assay: Antimalarial activity against Plasmodium falciparum Dd2 by HRP2 assay; type: functional, organism-based
[37] = tested on: Plasmodium falciparum; assay: Antimalarial activity against Plasmodium falciparum by LDH assay; type: functional, organism-based
[38] = tested on: Fusarium oxysporum; assay: Antifungal activity against Fusarium oxysporum assessed as zone of inhibition at 50 uM; type: functional; conditions: read-out: IZ
[39] = tested on: Aspergillus ochraceus; assay: Antifungal activity against Aspergillus ochraceus assessed as zone of inhibition at 20 ug/ml; type: functional; conditions: read-out: IZ
[40] = tested on: Proteus mirabilis; assay: Antibacterial activity against Proteus mirabilis assessed as zone of inhibition; type: functional
[41] = tested on: Serratia marcescens; assay: Antibacterial activity against Serratia marcescens assessed as zone of inhibition; type: functional
[42] = tested on: Penicillium chrysogenum; assay: Antifungal activity against Penicillium chrysogenum assessed as zone of inhibition; type: functional
[43] = tested on: Bacillus cereus; assay: Antibacterial activity against Bacillus cereus assessed as zone of inhibition; type: functional
[44] = tested on: Staphylococcus aureus; assay: Antibacterial activity against Staphylococcus aureus assessed as zone of inhibition; type: functional
[45] = tested on: Aspergillus ochraceus; assay: Antifungal activity against Aspergillus ochraceus assessed as zone of inhibition; type: functional
[46] = tested on: LS180; assay: Anticancer activity against human LS180 assessed as inhibition in cell viability; type: functional, cell-based
[47] = tested on: MCF7; assay: Antiproliferative activity against human MCF7 cells assessed as inhibition of cell proliferation measured after 96 hrs by SRB assay; type: functional, cell-based; conditions: MCF7, 96 h
[48] = Antiproliferative activity against human U87 cells assessed as reduction in cell viability by MTT assay; type: functional, cell-based, U-87MG ATCC; conditions: U-87 MG
[49] = tested on: Bacillus cereus; assay: Antibacterial activity against Bacillus cereus assessed as reduction in microbial growth after 18 hrs by MTT based broth dilution method; type: functional, organism-based
[50] = tested on: MCF7; assay: Anticancer activity against human MCF7 cells assessed as reduction in cell viability; type: functional, cell-based
[51] = tested on: Candida albicans; assay: […] activity against Candida albicans assessed as zone of inhibition at 20 mg/ml; type: functional; conditions: read-out: IZ
[52] = tested on: Staphylococcus simulans; assay: Antibacterial activity against Staphylococcus simulans assessed as zone of inhibition at 20 mg/ml; type: functional; conditions: read-out: IZ
[53] = tested on: Staphylococcus aureus; assay: Antibacterial activity against Staphylococcus aureus by dilution assay; type: functional
[54] = tested on: MCF7; assay: Cytotoxicity activity against human MCF7 cells assessed as decreased cell viability; type: functional, cell-based

Chain of D(4) dopamine receptor (P21917 whole entry): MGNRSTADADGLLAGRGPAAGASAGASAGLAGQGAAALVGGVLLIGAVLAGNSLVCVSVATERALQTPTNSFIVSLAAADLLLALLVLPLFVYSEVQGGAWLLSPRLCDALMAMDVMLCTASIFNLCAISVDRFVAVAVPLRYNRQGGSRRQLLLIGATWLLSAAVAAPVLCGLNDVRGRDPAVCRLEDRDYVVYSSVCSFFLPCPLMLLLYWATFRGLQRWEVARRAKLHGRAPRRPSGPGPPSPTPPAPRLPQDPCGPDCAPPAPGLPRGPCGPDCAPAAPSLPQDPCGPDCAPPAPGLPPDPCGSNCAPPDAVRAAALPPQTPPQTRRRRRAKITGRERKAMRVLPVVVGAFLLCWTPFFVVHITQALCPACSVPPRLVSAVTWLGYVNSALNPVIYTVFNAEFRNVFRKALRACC

Structure (SMILES): CN1CCN(Cc2[se]c3c(c2Br)c(=O)oc2ccccc23)CC1
IC50 [1]: 62 µM
Activity [2]: 84%
IC50 [3]: 9.4 µM

Structure (SMILES): COc1ccc2c3c(c(=O)oc2c1)CN(Cc1ccncc1)CC3
Ki [5]: 0.078 µM
Ki [6]: 0.0015 µM

Structure (SMILES): O=C(NO)c1cc2c(=O)oc3ccccc3c2s1
IC50 [7]: 8.84 µM

Structure (SMILES): CCOc1nc(-c2ccco2)cc2c1c(=O)oc1ccccc12
Activity [8]: 89%
Activity [9]: 62%

Structure (SMILES): CCOC(=O)c1sc2c(c1NC(=O)CNc1ccc(S(N)(=O)=O)cc1)c(=O)oc1ccccc12
zone of inhibition at 20000 µg/mL [10]: 9 mm
zone of inhibition at 20000 µg/mL [11]: 0 mm
zone of inhibition at 50 µM [12]: 10 mm
zone of inhibition at 20000 µg/mL [13]: 0 mm
zone of inhibition at 20000 µg/mL [14]: 0 mm
zone of inhibition at 20000 µg/mL [15]: 9 mm
zone of inhibition at 20000 µg/mL [16]: 0 mm
zone of inhibition at 20000 µg/mL [17]: 0 mm
zone of inhibition at 20000 µg/mL [18]: 0 mm
zone of inhibition at 20000 µg/mL [19]: 0 mm
zone of inhibition at 20000 µg/mL [20]: 10 mm
zone of inhibition at 20000 µg/mL [21]: 0 mm
zone of inhibition at 20000 µg/mL [22]: 0 mm

Structure (SMILES): COc1cccc(C2C3=C(CCCC3=O)Oc3c2c(=O)oc2ccccc32)c1 (stereo not drawn)
IC50 [23]: 73 µM

Structure (SMILES): CCOC(=O)c1sc2c(c1N)c(=O)oc1ccccc12
zone of inhibition at 20000 µg/mL [10]: 0 mm
zone of inhibition at 20000 µg/mL [11]: 8 mm
zone of inhibition at 20000 µg/mL [13]: 0 mm
zone of inhibition at 20000 µg/mL [14]: 8 mm
zone of inhibition at 20000 µg/mL [15]: 9 mm
zone of inhibition at 20000 µg/mL [16]: 0 mm
zone of inhibition at 50 µM [38]: 16 mm
zone of inhibition at 20000 µg/mL [17]: 10 mm
zone of inhibition at 20000 µg/mL [18]: 13 mm
zone of inhibition at 20000 µg/mL [19]: 0 mm
zone of inhibition at 20000 µg/mL [20]: 0 mm
zone of inhibition at 20000 µg/mL [21]: 8 mm
zone of inhibition at 20000 µg/mL [22]: 0 mm

Structure (SMILES): O=C1CN=C2C3=C(N=CN2N1)Oc1c(c(=O)oc2ccccc12)C3
zone of inhibition at 20 µg/mL [39]: 22 mm
inhibition zone (IZ) [40]: 22 mm
inhibition zone (IZ) [41]: 21 mm
inhibition zone (IZ) [42]: 19 mm and 22 mm
inhibition zone (IZ) [43]: 22 mm
inhibition zone (IZ) [44]: 20 mm
inhibition zone (IZ) [45]: 20 mm

Structure (SMILES): O=C1CCCC(=O)C1
IC50 [46]: > 100 µM
IC50 [47]: 100 µM

Structure (SMILES): N#CC1=C(N)Oc2c(c(=O)oc3ccccc23)C12C(=O)N(CCCCCCCCCCBr)c1ccccc12 (stereo not drawn)
IC50 [48]: 39 µM
IC50 [49]: 39 µM

Structure (SMILES): Cc1cccc2c1oc(=O)c1cn[nH]c12
zone of inhibition at 20000 µg/mL [15]: 14 mm
zone of inhibition at 20000 µg/mL [51]: 14 mm
zone of inhibition at 20000 µg/mL [52]: 14 mm
MIC [53]: 100 µM (≈ 20 µg/mL)

Structure (SMILES): Cc1ccc2nc3c(c(-c4ccccc4)c2c1)c(=O)oc1ccccc13
IC50 [54]: 0.05 µM

More lines, main results first:

IC50 [1]: 4 µM
IC50 [4]: 41 µM
Structure (SMILES): O=c1oc2ccccc2c2[se]c(CN3CCOCC3)c(Nc3cccnc3)c12

IC50 [25]: 246 µM
Structure (SMILES): CCc1ccccc1-n1c(N)c(C#N)c2c(c(=O)oc3ccc4ccccc4c32)c1=O
Activity [24]: 193.07 µmol/L

IC50 [26]: 25.4 µM
IC50 [27]: 29.8 µM
IC50 [29]: > 100 µM
IC50 [30]: 0.14 µM
Structure (SMILES): O=C1CCCc2nc3c(c(-c4ccccc4[N+](=O)[O-])c21)c(=O)oc1ccccc13
IC50 [28]: 58.6 µM

IC50 [31]: 0.05 µM
Structure (SMILES): Cc1ccc2c(c1)C(c1ccccc1)c1c(c3ccccc3oc1=O)N2 (stereo not drawn)

MIC [32]: 6.3 µM (≈ 2.61 µg/mL)
MIC [33]: 6.3 µM (≈ 2.61 µg/mL)
MIC [34]: 25 µM (≈ 10.4 µg/mL)
MIC [35]: 6.3 µM (≈ 2.61 µg/mL)
Structure (SMILES): CC1=Nc2[nH]n(-c3ccccc3)c(=O)c2C2c3cc(Cl)cc(Cl)c3OC(=O)C12 (stereo not drawn)

IC50 [36]: 1.1 µM
IC50 [37]: 1.1 µM
Structure (SMILES): CCN(CC)CCCC(C)Nc1cc2c(c(C)n1)c(=O)oc1ccccc12 (stereo not drawn)

IC50 [50]: 49 µM
Structure (SMILES): Cc1c(-c2nnn[nH]2)c(=O)oc2c1c(=O)oc1ccccc12
